Like-named read-outs stand apart in the source and are kept apart here.
Key:
human platelet PLA2 = target: T1, human platelet PLA2 (Homo sapiens, UniProt P14555); assay: Inhibition of cell free human platelet PLA2 (hydrolysis of [3H]-AA labelled E. coli phospholipids); type: biochemical; settings: for inhibition at 50 µM: pH 7.4, 37° C.
T1 construct: The PLA2 enriched supernatant fluid is removed and the amount of protein is determined by the Lowry method; from tissue; host or cells: expired human platelets from the blood bank (acid extract, not purified)
T1 sequence (P14555 21-144): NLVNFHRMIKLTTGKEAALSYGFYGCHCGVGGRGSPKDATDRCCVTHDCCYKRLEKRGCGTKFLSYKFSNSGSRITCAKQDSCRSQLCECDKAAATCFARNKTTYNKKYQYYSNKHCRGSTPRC
Description: The ability of the compounds in the scope of the invention to inhibit the activity of cell free human platelet PLA2 enzyme is measured in the following in vitro assay.
E. coli, cultured to exponential growth, are sedimented for 15 minutes at 10,000 g and resuspended in sterile isotonic saline (1-3 ml). 10-25 μCi uniformly labeled [^3 H]-arachidonic acid (AA) is added to a sterile flask, evaporated by N2 and resolubilized with 0.3 ml 20% fatty acid-free bovine serum albumen (BSA). 75-100 ml of nutrient broth and 1 ml E. coli are then added to each flask and incubated for 2-3 hours at 37° C. [^3 H]-AA labelled E. coli are then sedimented, suspended in saline and added to fresh nutrient broth and incubated for 1.5 hours at 37° C. to complete [^3 H]-AA incorporation into the phospholipids. After overnight refrigeration of cultures, E. coli are again sedimented, suspended in saline and autoclaved for 15 minutes at 120° C. E. coli cultures are washed twice with saline (first wash contains 1 % BSA) and resuspended in saline. Non-labelled E. coli cultures are also prepared in the same manner. Cell number is determined by measuring the optical density at […] (3×10 cell/ml=1 O.D.). The amount of radioactivity associated with cells is determined by counting a defined volume of cell suspension. The specific activity is subsequently adjusted by adding non-labelled E. coli to yield 2-4×10 cpm per 1×10^10 E. coli.
Expired human platelets from the blood bank are centrifuged for 15 minutes at 200 g to obtain a platelet rich fraction and to remove the red blood cells. Platelets are sedimented for 15 minutes at 2500 g and the plasma is removed before adding cold 0.18N H2 SO4 (4 ml/unit). Platelets are homogenized, incubated for 1 hour at 4° C., homogenized again and centrifuged for 15 minutes at 10,000 g. The PLA2 enriched supernatant fluid is removed and the amount of protein is determined by the Lowry method. The preparation is divided into various portions and stored at -20° C.
The assay measures the hydrolysis of E. coli membrane phospholipids and the release of free [^3 H]-AA from the C-2 position of phospholipids by human platelet PLA2. To ice cold 15×100 mm test tubes, the following additions are made; 2.5×10^8 E. coli (equivalent to 5 nmol phospholipid), 5 mM Ca++, 100 mM Tris buffer (pH=7.4), 100 μg platelet extract (or an amount to produce 20-30% hydrolysis), drug or vehicle. Incubation are carried out at 37° C. in a shaking water bath for 30 minutes. The reaction is terminated by the addition of 2 volumes of tetrahydrofuran (THF) and the mixture is vortexed. Hydrolyzed [^3 H]-AA is separated from unhydrolyzed phospholipid by solid phase extraction using Bond elute NH2 columns (Analytichem Intermat.). Columns are conditioned with 0.5 ml THF followed by 0.5 ml THF:H2 O (2.0:0.1 ml v/v). Samples are loaded onto columns and hydrolyzed [^3 H]-AA is eluted with 1 ml THF:glacial acetic acid (98.0:2.0 ml v/v). The elutant is transferred to vials, 10 ml Optifluor is added and the radioactivity is determined by liquid scintillation counting.
Treatments are corrected for non-enzymatic hydrolysis by subtracting the dpms in treatments containing no enzyme. Mean [^3 H]-AA dpm is determined and a percent inhibition relative to vehicle treated samples is calculated.
The percent hydrolysis is calculated by the following equation: [formula]

[1] = test system: synthesis of LTB4 by rat glycogen-elicited polymorphonuclear leukocytes (PMN); assay: Inhibition of LTB4 synthesis by rat glycogen-elicited polymorphonuclear leukocytes (PMN); type: cell-based, rat (female Wistar); settings: Leukocyte, A23187-stimulated rat PMN
[2] = test system: synthesis of the arachidonic acid cyclooxygenase oxidation product TxB2; assay: Inhibition of TxB2 synthesis (cyclooxygenase product) by rat polymorphonuclear leukocytes; type: cell-based, rat (female Wistar); settings: Leukocyte, A23187-stimulated rat PMN
[3] = test system: Naja mocambique mocambique PLA2; assay: Vascular cutaneous permeability induced by snake venom PLA2 in guinea pigs; type: in vivo, guinea pig (Hartley); settings: for % Inhibition (PLA2-induced vascular permeability): standard drug
[4] = test system: rat carrageenan paw edema; assay: Rat carrageenan paw edema; type: in vivo, rat (Sprague-Dawley); settings: 3 h; for % Inhibition of paw edema: at 50 mg/kg (peroral), 1 h prior to carrageenan
Description: The compounds in the scope of the invention are further tested in the rat carrageenan paw edema to determine their ability to inhibit the acute inflammatory response.
[…] male Sprague-Dawley rats, in groups of 6 animals are injected subcutaneously in the right paw with 0.1 ml of 1% carrageenan at zero time. Mercury plethysmographic readings (ml) of the paw are made at zero time and 3 hours later. Test compounds are suspended or dissolved in 0.5% methylcellulose and given perorally 1 hour prior to carrageenan administration.
The increase in paw volume (edema in ml.) produced by the carrageenan is measured. Paw edema is calculated (3 hour volume minus zero time volume), and percent inhibition of edema is determined. Unpaired Student's t-test is used to determine statistical significance.

[5] = test system: AA-induced mouse ear edema; assay: Arachidonic acid (AA)-induced murine ear edema test; type: in vivo, mouse (Swiss Webster); settings: 1 mg/ear, 30 min prior to AA, measured 1 h after AA
[6] = test system: TPA-induced mouse ear edema; assay: TPA-induced murine ear edema test; type: in vivo, mouse (Swiss Webster); settings: 1 mg/ear, 30 min after TPA, measured 4 h after TPA
[7] = test system: oxazolone-induced contact hypersensitivity in the mouse ear; assay: Oxazolone-induced contact hypersensitivity in the mouse ear; type: in vivo, mouse (Swiss Webster); settings: dosed at 1 mg/ear
Description: The assay of this Example measures the ability of the compounds in the scope of the invention to inhibit oxazolone-induced contact hypersensitivity in the mouse ear.
Female, Swiss Webster mice (8 weeks old) are placed into groups of 6 and the abdominal area of each is shaved. The mice are sensitized to oxazolone (4-ethoxymethylene-2-phenyl-oxazol-5-one) by applying 100 μl of a 2% solution in 95% alcohol directly onto the shaved abdomen using an automatic pipette and rubbing the residual oxazolone into the skin with a round wooden stick. Six days after sensitization each mouse is challenged by applying 20 μl of a 2% oxazolone solution in 95% alcohol to the right ear (10 μl on each side) and 20 μl of alcohol alone to the left ear. Compounds for topical applications are prepared in acetone and administered to the right ear 30 min after challenge or 30 min prior to and 5 h after challenge; acetone (vehicle) is applied to the left ear. Compounds for oral administration are suspended in 0.5 ml of 0.5% methyl cellulose and given ten min prior to challenge. Ear thickness of both ears is measured in mm×10^-2 at 24 and 48 h after challenge using an Oditest caliper. Edema is calculated by subtracting the left ear thickness from the right ear thickness. Drug effects are determined by calculating the percentage change from control for each time period.

[8] = cell free human platelet PLA2, pH 7.4, 37° C., 30 min, read-out: IC50 (PLA2)

inhibition at 50 µM (human platelet PLA2; 30 min) [%] | IC50 (human platelet PLA2; [8]) [µM] | SMILES | inhibition at 10 µM [1] [%] | inhibition at 10 µM [2] [%] | also measured
83.8 | 13.8 | COC(=O)C1(C(F)CCCCOc2ccc(Cl)cc2)CO1 (single isomer, unassigned) [2 (isomer A), 2-[5-(4-Chlorophenoxy)-1-fluoropentyl]-2-oxiranecarboxylic acid methyl ester (isomer A)] | – | – | –
84.6 | 19.2 | COC(=O)C1(C(F)CCCCCOc2ccc(Cl)cc2)CO1 (single isomer, unassigned) [3 (isomer A), 2-[6-(4-Chlorophenoxy)-1-fluorohexyl]-2-oxiranecarboxylic acid methyl ester (isomer A)] | – | – | –
88 | 2.6 | COC(=O)C1(C(F)CCCCc2ccccc2)CO1 (single isomer, unassigned) [Example 1 (isomer A), 2-(1-Fluoro-5-phenylpentyl)-2-oxiranecarboxylic acid methyl ester (isomer A)] | – | – | –
– | – | COC(=O)C1(C(F)CCCCCOc2ccc(Cl)cc2)CO1 (single isomer, unassigned) [Example 3, 2-[6-(4-Chlorophenoxy)-1-fluorohexyl]-2-oxiranecarboxylic acid methyl ester] | 17 | 34 | –
91.1 | 8.4 | COC(=O)C1(C(F)(F)CCCCOc2ccc(Cl)cc2)CO1 (centres unmarked) [6 (gem-difluoro compound), 2-[5-(4-Chlorophenoxy)-1,1-difluoropentyl]-2-oxiranecarboxylic acid methyl ester] | 7 | 44 | –
82 | 11.3 | COC(=O)C1(C(F)(F)CCCCCOc2ccc(Cl)cc2)CO1 (centres unmarked) [7 (gem-difluoro compound), 2-[6-(4-Chlorophenoxy)-1,1-difluorohexyl]-2-oxiranecarboxylic acid methyl ester] | 58 | 43 | –
– | – | CCCCC/C=C\C/C=C\C/C=C\C/C=C\CCCC(=O)O [Arachidonic Acid, reference compound] | – | – | IC50 (human platelet PLA2): 10.1 µM
– | – | NC1=NN(c2cccc(C(F)(F)F)c2)CC1 [BW 755c] | – | – | % Inhibition (PLA2-induced vascular permeability) ([3]; 200 mg/kg p.o.): 65.3%
– | – | CN(C)CCC(c1ccc(Cl)cc1)c1ccccn1 (centres unmarked) [Chlorpheniramine] | – | – | % Inhibition (PLA2-induced vascular permeability) ([3]; 2 mg/kg p.o.): 45.0%
– | – | C[C@@H]1C[C@H]2[C@@H]3CCC4=CC(=O)C=C[C@]4(C)[C@@]3(F)[C@@H](O)C[C@]2(C)[C@@]1(O)C(=O)CO [Dexamethasone] | – | – | % Inhibition (PLA2-induced vascular permeability) ([3]; 10 mg/kg p.o.): 49.0%
88.4 | 7.1 | COC(=O)C1(C(=O)CCCCCOc2ccc(Cl)cc2)CO1 (centres unmarked) [Example 7A, 2-[6-(4-Chlorophenoxy)-1-oxohexyl]-2-oxiranecarboxylic acid methyl ester] | 30 | 38 | % Inhibition of paw edema [4]: 53%; Mouse Ear Edema Assay, % Change from Control, TOPICAL, AA [5]: -59%; Mouse Ear Edema Assay, % Change from Control, TOPICAL, TPA [6]: -70%
81.8 | 3.2 | COC(=O)C1(C(=O)CCCCc2ccccc2)CO1 (centres unmarked) [Example 9, 2-(5-Phenyl-1-oxopentyl)-2-oxiranecarboxylic acid methyl ester] | 7 | 1 | % Inhibition of paw edema [4]: 27%; % Inhibition (oxazolone contact hypersensitivity) [7]: 22.0%
– | – | COc1ccc2c(c1)c(CC(=O)O)c(C)n2C(=O)c1ccc(Cl)cc1 [Indomethacin, reference compound] | – | – | % Inhibition (PLA2-induced vascular permeability) ([3]; 50 mg/kg p.o.): 15.0%; ED50 ([4]; Rattus norvegicus, po, read-out: Oral ED50 (95% C.L.)): 3.7 mg/kg
– | – | O=C(CBr)c1ccc(Br)cc1 [para-Bromophenacyl bromide, reference compound] | – | – | IC50 (human platelet PLA2): 23.7 µM

SMILES | inhibition at 50 µM (human platelet PLA2; 30 min) [%] | IC50 (human platelet PLA2; [8]) [µM] | inhibition at 10 µM [1] [%] | inhibition at 10 µM [2] [%] | also measured
COC(=O)C1(C(F)=CCCCOc2ccc(Cl)cc2)CO1 (centres unmarked) [6 (fluoro-vinyl compound), 2-[5-(4-Chlorophenoxy)-1-fluoro-1-pentenyl]-2-oxiranecarboxylic acid methyl ester] | 99.5 | 3 | 15 | 33 | % Inhibition, iv at 100 mg/kg (PLA2-induced vascular permeability) [3]: 32%; % Inhibition of paw edema [4]: 26%
CCOC(=O)C1(CCCCCc2ccc(Cl)cc2)CO1 (centres unmarked) [Example 10, 2-[5-(4-Chlorophenyl)pentyl]-2-oxiranecarboxylic acid ethyl ester] | 97.2 | 1.6 | 23 | 4 | % Inhibition, iv at 100 mg/kg (PLA2-induced vascular permeability) [3]: 24.1%; % Inhibition of paw edema [4]: 42%; Mouse Ear Edema Assay, % Change from Control, TOPICAL, AA [5]: -73%; Mouse Ear Edema Assay, % Change from Control, TOPICAL, TPA [6]: -45%

Reference: patent US4788304A, “Phospholipase A2 inhibitors” (American Home Products Corporation, priority 1987, dated 1988)
